{"source": "patent US20150173356A1", "about": "“COMPOSITIONS OF VOLATILE ORGANIC COMPOUNDS AND METHODS OF USE THEREOF” (Synthetic Genomics, Inc., priority 2009, published 2015)", "assay_in_all_cases": "Petri plate (PDA) volatile bioassay, liquid in a small cup in the centre of the plate", "format_in_all_cases": "cell-based", "conditions_in_all_cases": "2.5-20 microliters in cup, sealed plate, 3 days", "key": {"Ganoderma boninense": {"tested_on": "Ganoderma boninense", "protocol": "(§1) To test the bioactivity, the mixture was placed in a small cup in the center of a Petri plate with potato dextrose agar (PDA) (Strobel et al., 2001 Microbiology 147: 2943-2950). The volumes of liquid tested were 0, 2.5, 5.0, 10.0 and 20 microliters as per Strobel et al., supra. Then small cubes of fungal inoculum grown on PDA were also applied to the plate. The plates were sealed with parafilm and incubated for 3 days, at which time measurements of hyphal development were made. Also, after 3 days the small plug of fungal inoculum was removed from the plate and transferred to a fresh PDA plate to determine if the test fungus was still alive (capable of growth) and this was recorded."}, "Phytophthora palmivora": {"tested_on": "Phytophthora palmivora", "protocol": "as §1"}, "Pythium ultimum": {"tested_on": "Pythium ultimum", "protocol": "as §1"}}, "data": [{"smiles": "CC(C)C(=O)O", "note": "[isobutyric acid, 2-methyl propanoic acid]", "values": [{"measurement": "growth inhibition (hyphal development)", "setting": "Ganoderma boninense", "value": "inhibited"}, {"measurement": "test fungus still alive (capable of growth) after transfer of inoculum plug to fresh PDA", "setting": "Ganoderma boninense", "value": "not killed"}, {"measurement": "growth inhibition (hyphal development)", "setting": "Phytophthora palmivora", "value": "inhibited"}, {"measurement": "test fungus still alive (capable of growth) after transfer of inoculum plug to fresh PDA", "setting": "Phytophthora palmivora", "value": "not killed"}, {"measurement": "growth inhibition (hyphal development)", "setting": "Pythium ultimum", "value": "inhibited"}, {"measurement": "test fungus still alive (capable of growth) after transfer of inoculum plug to fresh PDA", "setting": "Pythium ultimum", "value": "not killed"}]}, {"smiles": "COC(=O)C(C)C", "note": "[methyl isobutyrate, methyl-2-methylpropanoate]", "values": [{"measurement": "growth inhibition (hyphal development)", "setting": "Ganoderma boninense", "value": "no growth inhibition"}, {"measurement": "growth inhibition (hyphal development)", "setting": "Phytophthora palmivora", "value": "no growth inhibition"}, {"measurement": "growth inhibition (hyphal development)", "setting": "Pythium ultimum", "value": "no growth inhibition"}]}]}
